Data reported in ChEMBL document CHEMBL1681651, “A broad spectrum anticancer nucleoside with selective toxicity against human colon cells in vitro” (2011).

What was measured:
Type in all cases: functional
A498 = assay: Growth inhibition of human A498 cells assessed as cell growth at 1 uM after 48 hrs by SRB assay; conditions: A498, 48 h, read-out: Activity
DU-145 = assay: Growth inhibition of human DU145 cells assessed as cell growth at 1 uM after 48 hrs by SRB assay; conditions: DU-145, 48 h, read-out: Activity
BT-549 [1] = assay: Growth inhibition of human BT549 cells assessed as cell growth at 1 uM after 48 hrs by SRB assay; conditions: BT-549, 48 h, read-out: Activity
EKVX = assay: Growth inhibition of human EKVX cells assessed as cell growth at 10 uM after 48 hrs by SRB assay; conditions: read-out: Activity
NCI-H522 = assay: Growth inhibition of human NCI-H522 cells assessed as cell growth at 10 uM after 48 hrs by SRB assay; conditions: NCI-H522, 48 h, read-out: Activity
SW-620 = assay: Growth inhibition of human SW620 cells assessed as cell growth at 10 uM after 48 hrs by SRB assay; conditions: SW-620, 48 h, read-out: Activity
SF-539 = assay: Growth inhibition of human SF539 cells assessed as cell growth at 10 uM after 48 hrs by SRB assay; conditions: SF-539, 48 h, read-out: Activity
SF-268 = assay: Growth inhibition of human SF268 cells after 48 hrs by […] growth inhibition assay; conditions: SF-268, 48 h
NCI-H460 [2] = assay: Growth inhibition of human NCI-H460 cells assessed as cell growth at 0.1 uM after 48 hrs by SRB assay; conditions: NCI-H460, 48 h, read-out: Activity
HT-29 = assay: Growth inhibition of human HT-29 cells assessed as cell growth at 0.1 uM after 48 hrs by SRB assay; conditions: HT-29, 48 h, read-out: Activity
SNB-19 = assay: Growth inhibition of human SNB19 cells assessed as cell growth at 0.1 uM after 48 hrs by SRB assay; conditions: SNB-19, 48 h, read-out: Activity
UACC-257 = assay: Growth inhibition of human UACC257 cells assessed as cell growth at 0.1 uM after 48 hrs by SRB assay; conditions: UACC-257, 48 h, read-out: Activity
OVCAR-4 = assay: Growth inhibition of human OVCAR4 cells assessed as cell growth at 0.1 uM after 48 hrs by SRB assay; conditions: OVCAR-4, 48 h, read-out: Activity
786-0 [3] = assay: Growth inhibition of human 786-0 cells assessed as cell growth at 0.1 uM after 48 hrs by SRB assay; conditions: 786-0, 48 h, read-out: Activity
SN12C [4] = assay: Growth inhibition of human SN12C cells assessed as cell growth at 0.1 uM after 48 hrs by SRB assay; conditions: read-out: Activity
Malme-3M = assay: Growth inhibition of human MALME-3M cells assessed as cell growth at 10 uM after 48 hrs by SRB assay; conditions: read-out: Activity
SK-MEL-2 [5] = assay: Growth inhibition of human SK-MEL-2 cells assessed as cell growth at 10 uM after 48 hrs by SRB assay; conditions: SK-MEL-2, 48 h, read-out: Activity
SK-MEL-5 = assay: Growth inhibition of human SK-MEL-5 cells assessed as cell growth at 10 uM after 48 hrs by SRB assay; conditions: SK-MEL-5, 48 h, read-out: Activity
786-0 [6] = assay: Growth inhibition of human 786-0 cells assessed as cell growth at 10 uM after 48 hrs by SRB assay; conditions: 786-0, 48 h, read-out: Activity
SN12C [7] = assay: Growth inhibition of human SN12C cells assessed as cell growth at 10 uM after 48 hrs by SRB assay; conditions: read-out: Activity
HOP-92 = assay: Growth inhibition of human HOP92 cells assessed as cell growth at 100 uM after 48 hrs by SRB assay; conditions: HOP-92, 48 h, read-out: Activity
NCI-H23 = assay: Growth inhibition of human NCI-H23 cells assessed as cell growth at 100 uM after 48 hrs by SRB assay; conditions: NCI-H23, 48 h, read-out: Activity
COLO 205 = assay: Growth inhibition of human COLO205 cells assessed as cell growth at 100 uM after 48 hrs by SRB assay; conditions: COLO 205, 48 h, read-out: Activity
OVCAR-3 = assay: Growth inhibition of human OVCAR3 cells assessed as cell growth at 100 uM after 48 hrs by SRB assay; conditions: OVCAR-3, 48 h, read-out: Activity
SN12C [8] = assay: Growth inhibition of human SN12C cells assessed as cell growth at 100 uM after 48 hrs by SRB assay; conditions: read-out: Activity
CCRF-CEM [9] = assay: Growth inhibition of human CCRF-CEM cells assessed as cell growth at 1 mM after 48 hrs by SRB assay; conditions: read-out: Activity
A549 = assay: Growth inhibition of human A549 cells assessed as cell growth at 1 mM after 48 hrs by SRB assay; conditions: A549, 48 h, read-out: Activity
NCI-H460 [10] = assay: Growth inhibition of human NCI-H460 cells assessed as cell growth at 1 mM after 48 hrs by SRB assay; conditions: NCI-H460, 48 h, read-out: Activity
HCT-116 = assay: Growth inhibition of human HCT116 cells assessed as cell growth at 1 mM after 48 hrs by SRB assay; conditions: HCT-116, 48 h, read-out: Activity
SNB-75 = assay: Growth inhibition of human SNB75 cells assessed as cell growth at 1 mM after 48 hrs by SRB assay; conditions: SNB-75, 48 h, read-out: Activity
SK-MEL-2 [11] = assay: Growth inhibition of human SK-MEL-2 cells assessed as cell growth at 1 mM after 48 hrs by SRB assay; conditions: SK-MEL-2, 48 h, read-out: Activity
OVCAR-5 = assay: Growth inhibition of human OVCAR5 cells assessed as cell growth at 1 mM after 48 hrs by SRB assay; conditions: OVCAR-5, 48 h, read-out: Activity
SK-OV-3 = assay: Growth inhibition of human SKOV3 cells assessed as cell growth at 1 mM after 48 hrs by SRB assay; conditions: SK-OV-3, 48 h, read-out: Activity
CAKI-1 = assay: Growth inhibition of human Caki1 cells assessed as cell growth at 1 mM after 48 hrs by SRB assay; conditions: CAKI-1, 48 h, read-out: Activity
UO-31 = assay: Growth inhibition of human UO31 cells assessed as cell growth at 1 mM after 48 hrs by SRB assay; conditions: UO-31, 48 h, read-out: Activity
BT-549 [12] = assay: Growth inhibition of human BT549 cells assessed as cell growth at 0.1 uM after 48 hrs by SRB assay; conditions: BT-549, 48 h, read-out: Activity
CCRF-CEM [13] = assay: Growth inhibition of human CCRF-CEM cells assessed as cell growth at 1 uM after 48 hrs by SRB assay; conditions: read-out: Activity
U-251 = assay: Growth inhibition of human U251 cells assessed as cell growth at 1 uM after 48 hrs by SRB assay; conditions: U-251, 48 h, read-out: Activity
[14] = read-out: LC50 (the source's name)
[15] = read-out: pLC50 (the source's name) (converted)

Molecule `CCOC(=O)C[C@H]1[C@@H](O[Si](C)(C)C(C)(C)C)[C@H](n2cnc3c(NC(=O)Nc4ccccc4)ncnc32)O[C@@H]1CNC(=O)NC` has a growth at 1 µM (A498) of 92%, a growth at 1 µM (DU-145) of 123% and a growth at 1 µM (BT-549 [1]) of 109%. It also gave a growth at 10 µM (EKVX) of 91%, a growth at 10 µM (NCI-H522) of 83% and a growth at 10 µM (SW-620) of 97%. It also gave a growth at 10 µM (SF-539) of 103%, a GI50 (SF-268; read-out: GI50) of 6.53 µM and a CC50 (SF-268; [14]) of 92.5 µM. It also gave a TGI (SF-268; read-out: TGI) of 27 µM, a GI50 (SF-268; read-out: pGI50 (converted)) of 6.61 µM and a CC50 (SF-268; [15]) of 93.3 µM. For the same molecule, the TGI (SF-268; read-out: pTGI (converted)) was 26.9 µM, the growth at 0.1 µM (NCI-H460 [2]) was 102% and the growth at 0.1 µM (HT-29) was 104%. The growth at 0.1 µM (SNB-19) was 92%, the growth at 0.1 µM (UACC-257) was 102% and the growth at 0.1 µM (OVCAR-4) was 98%. It also gave a growth at 0.1 µM (786-0 [3]) of 92%, a growth at 0.1 µM (SN12C [4]) of 101% and a growth at 10 µM (Malme-3M) of 92%. For the same molecule, the growth at 10 µM (SK-MEL-2 [5]) was 99%, the growth at 10 µM (SK-MEL-5) was 89% and the growth at 10 µM (786-0 [6]) was 86%. It also gave a growth at 10 µM (SN12C [7]) of 103%, a growth at 100 µM (HOP-92) of -32% and a growth at 100 µM (NCI-H23) of 65%. The growth at 100 µM (COLO 205) was 20%, the growth at 100 µM (OVCAR-3) was 16% and the growth at 100 µM (SN12C [8]) was 48%. It also gave a growth at 1000 µM (CCRF-CEM [9]) of -2%, a growth at 1000 µM (A549) of -58% and a growth at 1000 µM (NCI-H460 [10]) of -49%. It also gave a growth at 1000 µM (HCT-116) of -88%, a growth at 1000 µM (SNB-75) of 22% and a growth at 1000 µM (SK-MEL-2 [11]) of -30%. For the same molecule, the growth at 1000 µM (OVCAR-5) was 27%, the growth at 1000 µM (SK-OV-3) was 16% and the growth at 1000 µM (CAKI-1) was 7%. The growth at 1000 µM (UO-31) was -69%, the growth at 0.1 µM (BT-549 [12]) was 104% and the growth at 1 µM (CCRF-CEM [13]) was 100%. The growth at 1 µM (U-251) was 95%.

`CNC(=O)NC[C@H]1O[C@@H](n2cnc3c(NC(=O)Nc4ccccc4)ncnc32)[C@H](O[Si](C)(C)C(C)(C)C)[C@@H]1CC(=O)N(C)OC` gave a growth at 1 µM (A498) of 96%, a growth at 1 µM (DU-145) of 112% and a growth at 1 µM (BT-549 [1]) of 98%. It also gave a growth at 10 µM (EKVX) of 95%, a growth at 10 µM (NCI-H522) of 84% and a growth at 10 µM (SW-620) of 93%. For the same molecule, the growth at 10 µM (SF-539) was 89%, the GI50 (SF-268; read-out: GI50) was 8.29 µM and the CC50 (SF-268; [14]) was over 100 µM. It also gave a TGI (SF-268; read-out: TGI) of over 100 µM, a GI50 (SF-268; read-out: pGI50 (converted)) of 8.32 µM and a CC50 (SF-268; [15]) of over 100 µM. The TGI (SF-268; read-out: pTGI (converted)) was over 100 µM, the growth at 0.1 µM (NCI-H460 [2]) was 96% and the growth at 0.1 µM (HT-29) was 104%. For the same molecule, the growth at 0.1 µM (SNB-19) was 94%, the growth at 0.1 µM (UACC-257) was 95% and the growth at 0.1 µM (OVCAR-4) was 100%. For the same molecule, the growth at 0.1 µM (786-0 [3]) was 95%, the growth at 0.1 µM (SN12C [4]) was 106% and the growth at 10 µM (Malme-3M) was 93%. For the same molecule, the growth at 10 µM (SK-MEL-2 [5]) was 92%, the growth at 10 µM (SK-MEL-5) was 89% and the growth at 10 µM (786-0 [6]) was 93%. The growth at 10 µM (SN12C [7]) was 96%, the growth at 100 µM (HOP-92) was 27% and the growth at 100 µM (NCI-H23) was 71%. For the same molecule, the growth at 100 µM (COLO 205) was 55%, the growth at 100 µM (OVCAR-3) was 41% and the growth at 100 µM (SN12C [8]) was 66%. It also gave a growth at 1000 µM (CCRF-CEM [9]) of 23%, a growth at 1000 µM (A549) of 27% and a growth at 1000 µM (NCI-H460 [10]) of 25%. For the same molecule, the growth at 1000 µM (HCT-116) was 6%, the growth at 1000 µM (SNB-75) was 12% and the growth at 1000 µM (SK-MEL-2 [11]) was -5%. The growth at 1000 µM (OVCAR-5) was 35%, the growth at 1000 µM (SK-OV-3) was 38% and the growth at 1000 µM (CAKI-1) was 47%. The growth at 1000 µM (UO-31) was 32%, the growth at 0.1 µM (BT-549 [12]) was 95% and the growth at 1 µM (CCRF-CEM [13]) was 100%. The growth at 1 µM (U-251) was 101%.
